As a reminder, the IC50 is the point on the concentration scale where inhibition reaches its midpoint.

This passage reports IC50 results from US11780839B2, “Compounds for treating Huntington's disease” (PTC THERAPEUTICS, INC., priority 2018, dated 2023).

Some results are limits rather than exact numbers.

This test deals with Endogenous Huntingtin Protein. The test is described as follows: Endogenous Huntingtin Protein Assay (ELISA-based Meso Scale Discovery electrochemiluminescence). Format: cell-based. The conditions noted are these: MSD electrochemiluminescence, Table 1. In short, it runs like this: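 Huntingtin was captured overnight at 4 °C on plates coated with 1 μg/mL MW1 (polyQ-expanded) or MAB2166 antibody and BSA-blocked. Detection used a rabbit monoclonal and then a SULFO-TAG goat anti-rabbit antibody (0.25 μg/mL, 1 h each, room temperature). Signal was read by electrochemiluminescence.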
(In general: ELISA stands for enzyme-linked immunosorbent assay.)
For `Oc1cc(-c2cn[nH]c2)ccc1-c1cnc(N2CC3(CCCNC3)C2)nn1` [Cpd 109, 2-[3-(2,6-diazaspiro[3.5]nonan-2-yl)-1,2,4-triazin-6-yl]-5-(1H-pyrazol-4-yl)phenol], the IC50 was in the range of 100 to 500 nM. Take `Oc1cc(-c2cn[nH]c2)ccc1-c1cnc(N2CCC3(CNC3)C2)nn1` [Cpd 110, 2-[3-(2,6-diazaspiro[3.4]octan-6-yl)-1,2,4-triazin-6-yl]-5-(1H-pyrazol-4-yl)phenol]: the 50% inhibitory concentration (IC50) lay in the range of 100 to 500 nM. Compound `CN(c1ncc(-c2ccc(-c3cc[nH]n3)cc2O)nn1)C1CC(C)(C)NC(C)(C)C1` [Cpd 111, 2-{3-[methyl(2,2,6,6-tetramethylpiperidin-4-yl)amino]-1,2,4-triazin-6-yl}-5-(1H-pyrazol-3-yl)phenol] showed a half-maximal inhibitory concentration (IC50) of at most 100 nM. Compound `CN(c1ncc(-c2ccc(-c3ncc(F)cn3)cc2O)nn1)C1CC(C)(C)NC(C)(C)C1` [Cpd 112, 5-(5-fluoropyrimidin-2-yl)-2-{3-[methyl(2,2,6,6-tetramethylpiperidin-4-yl)amino]-1,2,4-triazin-6-yl}phenol] came in with a 50% inhibitory concentration (IC50) of 100 to 500 nM. As for `CN1CCC12CCN(c1ncc(-c3ccc(-c4cn[nH]c4)cc3O)nn1)CC2` [Cpd 113, 2-[3-(1-methyl-1,7-diazaspiro[3.5]nonan-7-yl)-1,2,4-triazin-6-yl]-5-(1H-pyrazol-4-yl)phenol], the figure is 100 to 500 nM. In turn, `CN[C@H]1CCN(c2ncc(-c3ccc(-c4cn[nH]c4)cc3O)nn2)C1` [Cpd 114, 2-{3-[(3S)-3-(methylamino)pyrrolidin-l-yl]-1,2,4-triazin-6-yl}-5-(1H-pyrazol-4-yl)phenol] gave a concentration for half-maximal inhibition (IC50) of at most 100 nM. Compound `N[C@@H]1CN(c2ncc(-c3ccc(-c4cn[nH]c4)cc3O)nn2)CC12CC2` [Cpd 115, 2-{3-[(7S)-7-amino-5-azaspiro[2.4]heptan-5-yl]-1,2,4-triazin-6-yl}-5-(1H-pyrazol-4-yl)phenol] displayed an IC50 of 100 to 500 nM. The compound `Oc1cc(-c2cn[nH]c2)ccc1-c1cnc(N2CCN3CCC[C@H]3C2)nn1` [Cpd 116, 2-{3-[(8aS)-hexahydropyrrolo[1,2-a]pyrazin-2(1H)-yl]-1,2,4-triazin-6-yl}-5-(1H-pyrazol-4-yl)phenol] came in with an IC50 of 100 to 500 nM. `CN1CC[C@@H]2CN(c3ncc(-c4ccc(-c5cn[nH]c5)cc4O)nn3)C[C@@H]21` [Cpd 117, 2-{3-[(3aR,6aR)-1-methylhexahydropyrrolo[3,4-b]pyrrol-5(1H)-yl]-1,2,4-triazin-6-yl}-5-(1H-pyrazol-4-yl)phenol] showed a half-maximal inhibitory concentration (IC50) of 100 to 500 nM. Consider `Oc1cc(-c2cn[nH]c2)ccc1-c1cnc(N2CC3(CNC3)C2)nn1` [Cpd 118, 2-[3-(2,6-diazaspiro[3.3]heptan-2-yl)-1,2,4-triazin-6-yl]-5-(1H-pyrazol-4-yl)phenol], for which the concentration for half-maximal inhibition (IC50) lay within 100 to 500 nM. With `Cc1nnn(-c2ccc(-c3cnc(N(C)C4CC(C)(C)NC(C)(C)C4)nn3)c(O)c2)n1` [Cpd 119, 2-{3-[methyl(2,2,6,6-tetramethylpiperidin-4-yl)amino]-1,2,4-triazin-6-yl}-5-(5-methyl-2H-tetrazol-2-yl)phenol], the concentration for half-maximal inhibition (IC50) was at most 100 nM. `CCC1CC(Oc2ncc(-c3ccc(-c4cn[nH]c4)cc3O)nn2)CC(CC)N1` [Cpd 120, 2-{3-[(2R,4s,6S)-2,6-diethylpiperidin-4-yl]oxy}-1,2,4-triazin-6-yl)-5-(1H-pyrazol-4-yl)phenol] yielded an IC50 of 100 to 500 nM. `CC1(C)CC(Nc2ncc(-c3ccc(-n4nccn4)cc3O)nn2)CC(C)(C)N1` [Cpd 121, 2-{3-[(2,2,6,6-tetramethylpiperidin-4-yl)amino]-1,2,4-triazin-6-yl}-5-(2H-1,2,3-triazol-2-yl)phenol]: the concentration for half-maximal inhibition (IC50) is at most 100 nM. The compound `CC1(C)CC(Oc2ncc(-c3ccc(-n4nccn4)cc3O)nn2)CC(C)(C)N1` [Cpd 122, 2-{3-[(2,2,6,6-tetramethylpiperidin-4-yl)oxy]-1,2,4-triazin-6-yl}-5-(2H-1,2,3-triazol-2-yl)phenol] gave an IC50 of 100 to 500 nM. Take `CN(c1ncc(-c2ccc(-c3ccc(Cl)nn3)cc2O)nn1)C1CC(C)(C)NC(C)(C)C1` [Cpd 123, 5-(6-chloropyridazin-3-yl)-2-{3-[methyl(2,2,6,6-tetramethylpiperidin-4-yl)amino]-1,2,4-triazin-6-yl}phenol]: the IC50 was at most 100 nM. As for `CN(c1ncc(-c2ccc(-c3ccnn3C)cc2O)nn1)C1CC(C)(C)NC(C)(C)C1` [Cpd 124, 5-(1-methyl-1H-pyrazol-5-yl)-2-{3-[methyl(2,2,6,6-tetramethylpiperidin-4-yl)amino]-1,2,4-triazin-6-yl}phenol], the IC50 lay within 100 to 500 nM.

In turn, `CN(c1ncc(-c2cc(F)c(-c3ccn[nH]3)cc2O)nn1)C1CC(C)(C)NC(C)(C)C1` [Cpd 125, 4-fluoro-2-{3-[methyl(2,2,6,6-tetramethylpiperidin-4-yl)amino]-1,2,4-triazin-6-yl}-5-(1H-pyrazol-5-yl)phenol] showed a concentration for half-maximal inhibition (IC50) of at most 100 nM. In the case of `CC1(C)CC(Nc2ncc(-c3ccc(-c4cn[nH]c4)cc3O)nn2)C(F)C(C)(C)N1` (stereo not shown) [Cpd 126, 2-{3-[(3-fluoro-2,2,6,6-tetramethylpiperidin-4-yl)amino]-1,2,4-triazin-6-yl}-5-(1H-pyrazol-4-yl)phenol] it was at most 100 nM; in that of `CCN(CC)C1C2CN(c3ncc(-c4ccc(-c5cn[nH]c5)cc4O)nn3)CC21` (stereo not shown) [Cpd 127, 2-{3-[6-(diethylamino)-3-azabicyclo[3.1.0]hexan-3-yl]-1,2,4-triazin-6-yl}-5-(1H-pyrazol-4-yl)phenol], 100 to 500 nM. Take `Cc1cnc(-c2ccc(-c3cnc(N(C)C4CC(C)(C)NC(C)(C)C4)nn3)c(O)c2)nc1` [Cpd 128, 5-(5-methylpyrimidin-2-yl)-2-{3-[methyl(2,2,6,6-tetramethylpiperidin-4-yl)amino]-1,2,4-triazin-6-yl}phenol]: the IC50 lay within 100 to 500 nM.

With `Cc1ccnc(-c2ccc(-c3cnc(N(C)C4CC(C)(C)NC(C)(C)C4)nn3)c(O)c2)n1` [Cpd 129, 5-(4-methylpyrimidin-2-yl)-2-{3-[methyl(2,2,6,6-tetramethylpiperidin-4-yl)amino]-1,2,4-triazin-6-yl}phenol], the 50% inhibitory concentration (IC50) fell in the range of 100 to 500 nM. The compound `CN(c1ncc(-c2ccc(-c3ccnc(Cl)n3)cc2O)nn1)C1CC(C)(C)NC(C)(C)C1` [Cpd 130, 5-(2-chloropyrimidin-4-yl)-2-{3-[methyl(2,2,6,6-tetramethylpiperidin-4-yl)amino]-1,2,4-triazin-6-yl}phenol] came in with an IC50 of 100 to 500 nM.

The compound `CN(c1ncc(-c2ccc(-c3ccc4[nH]cnc4c3)cc2O)nn1)C1CC(C)(C)NC(C)(C)C1` [Cpd 131, 5-(1H-benzimidazol-5-yl)-2-{3-[methyl(2,2,6,6-tetramethylpiperidin-4-yl)amino]-1,2,4-triazin-6-yl}phenol] returned an IC50 of at most 100 nM. Consider `CN(c1ncc(-c2ccc(-c3cnc4[nH]ncc4c3)cc2O)nn1)C1CC(C)(C)NC(C)(C)C1` [Cpd 132, 2-{3-[methyl(2,2,6,6-tetramethylpiperidin-4-yl)amino]-1,2,4-triazin-6-yl}-5-(1H-pyrazolo[3,4-b]pyridin-5-yl)phenol], for which the IC50 is 100 to 500 nM. Compound `CN(c1ncc(-c2ccc(-n3cnc(Cl)n3)cc2O)nn1)C1CC(C)(C)NC(C)(C)C1` [Cpd 133, 5-(3-chloro-1H-1,2,4-triazol-1-yl)-2-{3-[methyl(2,2,6,6-tetramethylpiperidin-4-yl)amino]-1,2,4-triazin-6-yl}phenol] showed an IC50 of at most 100 nM. As for `CN(c1ncc(-c2ccc(-c3ccc(O)nn3)cc2O)nn1)C1CC(C)(C)NC(C)(C)C1` [Cpd 134, 6-(3-hydroxy-4-{3-[methyl(2,2,6,6-tetramethylpiperidin-4-yl)amino]-1,2,4-triazin-6-yl}phenyl)pyridazin-3-ol], the IC50 is at most 100 nM. `CN(c1ncc(-c2ccc(-n3cc(C#N)cn3)cc2O)nn1)C1CC(C)(C)NC(C)(C)C1` [Cpd 135, 1-(3-hydroxy-4-{3-[methyl(2,2,6,6-tetramethylpiperidin-4-yl)amino]-1,2,4-triazin-6-yl}phenyl)-1H-pyrazole-4-carbonitrile] gave an IC50 of 100 to 500 nM. `CN(c1ncc(-c2ccc(-c3ccc4[nH]ncc4n3)cc2O)nn1)C1CC(C)(C)NC(C)(C)C1` [Cpd 136, 2-{3-[methyl(2,2,6,6-tetramethylpiperidin-4-yl)amino]-1,2,4-triazin-6-yl}-5-(1H-pyrazolo[4,3-b]pyridin-5-yl)phenol] yielded a half-maximal inhibitory concentration (IC50) of at most 100 nM. Take `Oc1cc(-c2cn[nH]c2)ccc1-c1cnc(N2CCC(NC3CC3)C2)nn1` (stereo not shown) [Cpd 137, 2-{3-[3-(cyclopropylamino)pyrrolidin-1-yl]-1,2,4-triazin-6-yl}-5-(1H-pyrazol-4-yl)phenol]: the IC50 was at most 100 nM. On to `CC(C)(C)NC1CCN(c2ncc(-c3ccc(-c4cn[nH]c4)cc3O)nn2)C1` (stereo not shown) [Cpd 138, 2-{3-[3-(tert-butylamino)pyrrolidin-1-yl]-1,2,4-triazin-6-yl}-5-(1H-pyrazol-4-yl)phenol], for which the IC50 is at most 100 nM. Consider `CN(c1ncc(-c2ccc(-n3cnc(C#N)c3)cc2O)nn1)C1CC(C)(C)NC(C)(C)C1` [Cpd 139, 1-(3-hydroxy-4-{3-[methyl(2,2,6,6-tetramethylpiperidin-4-yl)amino]-1,2,4-triazin-6-yl}phenyl)-1H-imidazole-4-carbonitrile], for which the concentration for half-maximal inhibition (IC50) is 100 to 500 nM. `CC(=O)c1cn(-c2ccc(-c3cnc(N(C)C4CC(C)(C)NC(C)(C)C4)nn3)c(O)c2)cn1` [Cpd 140, 1-[1-(3-hydroxy-4-{3-[methyl(2,2,6,6-tetramethylpiperidin-4-yl)amino]-1,2,4-triazin-6-yl}phenyl)-1H-imidazol-4-yl]ethan-l-one] returned an IC50 of at most 100 nM. In turn, `Cc1cn2nc(-c3ccc(-c4cnc(N(C)C5CC(C)(C)NC(C)(C)C5)nn4)c(O)c3)cc(C)c2n1` [Cpd 141, 5-(2,8-dimethylimidazo[1,2-b]pyridazin-6-yl)-2-{3-[methyl(2,2,6,6-tetramethylpiperidin-4-yl)amino]-1,2,4-triazin-6-yl}phenol] had an IC50 of at most 100 nM. In turn, `Cc1cn2nc(-c3ccc(-c4cnc(N(C)C5CC(C)(C)NC(C)(C)C5)nn4)c(O)c3)ccc2n1` [Cpd 142, 5-(2-methylimidazo[1,2-b]pyridazin-6-yl)-2-{3-[methyl(2,2,6,6-tetramethylpiperidin-4-yl)amino]-1,2,4-triazin-6-yl}phenol] had a half-inhibitory concentration (IC50) of at most 100 nM.
